Measured values reported in patent EP3293174A1, “CRYSTALLINE SALTS OF BETRIXABAN” (SANDOZ AG, priority 2016, dated 2018).
Where a name gives a salt, the structure may show the parent alone.

What was measured:
Format in all cases: physicochemical
[1] = Gravimetric moisture sorption/desorption (GMSD) isotherms; conditions: for hygroscopicity according to the GMSD isotherms: 25 ± 0.1°C, 0 to 95% RH; for water: when measured at 0 to 95% RH and 25 ± 0.1°C
Procedure: Gravimetric moisture sorption/desorption
Gravimetric moisture sorption/desorption (GMSD) isotherms were recorded with an SPSx-1µ moisture sorption analyzer (ProUmid, Ulm). The measurement cycle was started at ambient relative humidity (RH) of 30%. Relative humidity was then decreased to 5% RH in 5% steps, followed by a further decrease to 3% RH and to 0% RH. For this isotherm, as black filled square with a white x inside is used in the respective figures. Afterwards RH was increased from 0% to 95% RH in a sorption cycle and decreased to 0 % in a desorption cycle in 5% steps. Finally RH was increased to 40% RH in 5% steps. As to the isotherm obtained by the last step, a black filled square with a white star inside is used as symbol in the respective figures.
The time per step was set to a minimum of 2 hours and a maximum of 6 hours. If an equilibrium condition with a constant mass of ± 0.01 % within 1 hour was reached before the maximum time for all examined samples the sequential humidity step was applied before the maximum time of 6 hours. If no equilibrium was achieved the consecutive humidity step was applied after the maximum time of 6 hours. The temperature was 25 ± 0.1°C.

[2] = Determination of the moisture stability (climate chamber, PXRD analysis)
Procedure: Powder X-ray diffraction (PXRD) was performed with a PANalytical X'Pert PRO diffractometer equipped with a theta/theta coupled goniometer in transmission geometry, Cu-Kα1,2 radiation (wavelength 0.15419 nm) with a focusing mirror and a solid state PIXcel detector. Diffractograms were recorded at a tube voltage of 45 kV and a tube current of 40 mA, applying a stepsize of 0.013° 2-Theta with 40s per step (255 channels) in the angular range of 2° to 40° 2-Theta at ambient conditions. Determination of the moisture stability Moisture stability at accelerated stability conditions was performed in a Memmert constant climate chamber HPP110.

[3] = Determination of the solubility in water (solvent addition technique); conditions: 25 °C, thermodynamic from solid, in water at 25°C, estimated by solvent addition
Procedure: About 10 mg of crystalline betrixaban salt were weighed out into a vial. Water was added to the vial in aliquots of 500 µL and 200 µL until the salt was dissolved. In between the water additions the samples was sonicated for about 5 min, followed by shaking at 25°C for about 10 to 15 min.

[4] = listed as crystalline form B of betrixaban hydrobromide, hydrobromide
[5] = 8 weeks at 40°C and a relative humidity of 75%
[6] = listed as crystalline form A of betrixaban hydrochloride, hydrochloride

| hygroscopicity according to the GMSD isotherms [1, 4] | water [1, 4] | PXRD pattern after storage compared with the initial pattern (moisture stability test) [2, 5] | solubility [3] | hygroscopicity according to the GMSD isotherms [1, 6] | water [1, 6] | PXRD pattern after storage compared with the initial pattern (moisture stability test) ([2]; 4 weeks at 40°C and a relative humidity of 75%) | SMILES |
| --- | --- | --- | --- | --- | --- | --- | --- |
| moderately hygroscopic | ≤ 1.9% | essentially identical | – | – | – | – | COc1ccc(NC(=O)c2ccc(C(=N)N(C)C)cc2)c(C(=O)Nc2ccc(Cl)cn2)c1 [Betrixaban hydrobromide, form B, betrixaban hydrobromide] |
| – | – | essentially identical | > 5000 µg/mL | non-hygroscopic | ≤ 0.2% | – | COc1ccc(NC(=O)c2ccc(C(=N)N(C)C)cc2)c(C(=O)Nc2ccc(Cl)cn2)c1 [Betrixaban hydrochloride, form A, betrixaban hydrochloride] |
| – | – | – | – | – | – | essentially identical | COc1ccc(NC(=O)c2ccc(C(=N)N(C)C)cc2)c(C(=O)Nc2ccc(Cl)cn2)c1 [Betrixaban hydrochloride, form B, betrixaban hydrochloride] |
